Test results: publication PMC6158189, “A pharmacological probe identifies cystathionine β-synthase as a new negative regulator for ferroptosis” (Cell Death & Disease, 2018)

System: rat hemorrhagic shock model
Assay: hemorrhagic shock rat model
Assay type: in vivo
Conditions: 3 mg/kg intraperitoneal
Protocol: Fig. 3 The effect of CH004 on the activity of endogenous hCBS in cells. a CH004 dose-dependently elevates the levels of Hcys in HepG2 and HEK293T cells. HepG2 cells or HEK293T cells were incubated with indicated CH004 or DMSO (control) for 12 h. The amount of total Hcys in cells was measured by ELISA using Axis® Homocysteine EIA kit (IBL, AX51301) (“Materials and Methods” section). […] HepG2 cells were treated with indicated DMSO, CH004 or HA for 8 h before the staining with AzMC probe. The amount of the H2S (blue) was quantified and is shown in (c). Bars, 50 μm. Control (CTR), DMSO group (100%). A representative fluorescence image from three independent experiments is shown. […] The total Hcys of the blood samples collected from the anesthetized rats at the 75 min time point (Materials and Methods) were quantified by ELISA (see above). […]
Figure S10. […] The hemorrhagic shock model was constructed by blood withdrawing (BW) from the carotid artery of anesthetized male Sprague-Dawley rats (280-320 g), and the mean arterial blood pressure (MAP) was monitored by an MP30B-CE pressure transducer (BIOPAC, Santa Barbara, CA, USA). […] Then, 15 min later, CH004 (3 mg/kg), PAG (50 mg/kg) or vehicle (2% DMSO in saline) was intraperitoneally administered to the rats, and the MAP was monitored continuously for another 45 min. MAP was continually recorded during the experiments. […]

**Q.** For `Cn1nc(Cc2ccccc2)nc2c(=O)n(C)c(=O)nc1-2` [CH004, 3-benzyl-1,6-dimethylpyrimido[5,4-e][1,2,4]triazine-5,7(1H,6H)-dione], which “increase of the level of Hcys in blood” value (75 min time point) is on record?
**A.** ~ 2 fold

**Q.** What about the “effect on mean arterial pressure (MAP)” value (indicator for in vivo CSE inhibition) of the same compound?
**A.** does not affect
